According to patent publication US20080138280A1, “Composition and Methods For Inhibiting Cell Survival” (The Cleveland Clinic Foundation, priority 2003, published 2008):

Assays:
Test in all cases: Sulforhodamine B cell growth assay, normal cells
Format in all cases: cell-based, human
[1] = tested on: CMN1 (normal melanocytes)
Experimental: (§1) Cell Culture treatments. Cells were maintained in RPMI or DMEM (Mediatech, Herndon, Va.) containing 5% fetal bovine serum (Hyclone, Logan, Utah) and 1% Antibiotic-Antimycotic (GEBCO, Invitrogen Carlsbad, Calif.) as recommended per the American Type Culture Collection media protocol for each cell line. Cells were maintained in 5% CO2 at 37° C. in a humidified tissue culture incubator. Primary non-tumorigenic […] cell lines (DMN-1 and CMN-1), and human foreskin fibroblasts (HFF; CCF, Cleveland, Ohio) were cultured in DMEM-F12 medium supplemented with 10% FBS. Cells were confirmed as mycoplasma free.
(§2) Sulforhodamine B Cell Growth Assay. Cells were harvested with 0.5% trypsin/0.53 mM EDTA, washed with PBS and resuspended in media containing 10% FBS. Cells were plated in 96-well plates in 0.2-ml aliquots. Cells were allowed to adhere to the plate for 4 h and then NO-Cbl was added in different concentrations to the assay plate. A minimum of four were performed for each treatment. After 16 h, various chemotherapeutic agents including cytokines were added at different concentrations. Growth was monitored by the sulforhodamine B (SRB; Sigma Chemical, St. Louis, Mo.) colorimetric assay. After 36 h, the medium was removed, and the cells were fixed with 10% trichloroacetic acid and stained with SRB. Bound dye was eluted from the cells with 10 mM Tris-HCl (pH 10.5) and absorbance was measured at 570 nm using a Lab systems Multiskan RC 96-well plate reader (Lab Systems Multiscan RC, Thermo Lab Systems, Franklin, Mass.). To quantify the growth of the cells, the experimental absorbance values (Aexp) were compared with initial absorbance readings representing the starting cell numbers (Aini). To determine the starting cell number, an additional 96-well plate was seeded with cells and fixed at the beginning of the experiment. After 5 days growth, the untreated control cells and drug treated cells were fixed and stained with SRB. The absorbances derived from the initial plate and from the untreated cells at the end of the growth period (Afin) were defined as 0% and 100% growth, respectively. The percentage control growth (100%×[Aexp−Aini]/[Afin−Aini]) is expressed as a percentage of untreated controls.
(§3) Anti-tumor effects of NO-Cbl, Apo2L/TRAIL, and the combination iii vitro. NO-Cbl enhances the anti-cellular effects of Apo2L/TRAIL against malignant Apo2L/TRAIL-resistant cell lines. First the antiproliferative effects of three melanoma lines A375, WM9, and WM3211 (previously reported to be resistant to Apo2L/TRAIL) were measured. Although Apo2L/TRAIL was used as the chemotherapeutic agents, a wide range of anti-cancer drugs and techniques would be enhanced by the NO based cobalamin compounds due to their effective inhibition of the cell survival mechanism. Such other chemotherapeutic agents are tested in the following examples. […] The SRB antiproliferative assay, used by the National Cancer Institute (NCI) to evaluate new chemotherapeutic agents was used herein. Median effect analysis was used to analyze drug interactions between NO-Cbl and Apo2L/TRAIL. Cells were pre-treated with NO-Cbl for 16 h followed by Apo2L/TRAIL for 24 h.
(§4) The effects of nitrosylcobalamin (NO-Cbl), Apo2L/TRAIL, and the combination on the proliferation of melanoma cell lines A375, WM9, and WM3211 and normal cell lines CMN1, DMN1, and fibroblasts were observed. Cells were treated with NO-Cbl, Apo2L/TRAIL, or pre-treated with NO-Cbl followed by Apo2L/TRAIL for three days, and growth was measured by the colorimetric sulforhodamine B assay. Data points were generated to represent the mean of four replicates±standard error of the mean (SEM). Synergy between NO-Cbl and Apo2L/TRAIL was determined by median effect analysis, (combination index >1 indicates antagonism, =1 indicates additivity, and <1 indicates synergy). The combination index is represented in FIG. 1 and as the combination index observed at the specified concentrations. […]

normal fibroblasts = tested on: normal fibroblasts
Experimental: as §1, §2, §3, §4

[2] = tested on: DMN1 (normal melanocytes)
Experimental: as §1, §2, §3, §4

Measured: antiproliferative effect on normal cells

nitrosylcobalamin [NO-Cbl]
completely resistant: all assays above
